± gives the expanded uncertainty stated by the source.
Assays:
[1] = Liquid; for mass density: 298.15 K, 101.33 kPa, Pycnometric method; for Normal boiling temperature: Ebulliometric method (Recirculating still)
[2] = refractive index (Na D-line) (dimensionless); settings: 298.15 K; 101.33 kPa; Liquid; Standard Abbe refractometry
[3] = Boiling temperature at pressure P; settings: Liquid, Ebulliometric method (Recirculating still)

Row | mass density [1] | Normal boiling temperature [1] | refractive index [2] | Boiling temperature at pressure P ([3]; 8.01 kPa) | Boiling temperature at pressure P ([3]; 20 kPa) | Boiling temperature at pressure P ([3]; 30 kPa) | Boiling temperature at pressure P ([3]; 34.84 kPa) | Boiling temperature at pressure P ([3]; 39.85 kPa) | Boiling temperature at pressure P ([3]; 50 kPa) | Boiling temperature at pressure P ([3]; 55.02 kPa) | SMILES
1 | 837.1 ± 0.8 kg/m3 | 119.44 ± 0.2 °C | 1.387 ± 0.0007 | 49.24 ± 0.21 °C | 70.88 ± 0.2 °C | 81.73 ± 0.2 °C | 85.81 ± 0.2 °C | 89.66 ± 0.2 °C | 96.50 ± 0.2 °C | 99.39 ± 0.2 °C | CCCCOCOC [1-(methoxymethoxy)-butane]
2 | 805.2 ± 0.7 kg/m3 | – | 1.3967 ± 0.0007 | – | – | – | – | – | – | – | CCCCO [butan-1-ol]
3 | 799.3 ± 0.7 kg/m3 | 97.16 ± 0.2 °C | 1.3833 ± 0.0007 | – | – | – | – | – | – | – | CCCO [propan-1-ol]

From the NIST ThermoML archive (doi:10.1016/j.fluid.2014.12.029)
